Laboratory results from BindingDB's records for doi:10.1074/jbc.M701813200 (Jacobus Pharmaceutical, 2007).

Molecular target: T1, Enoyl-ACP reductase (Plasmodium falciparum, UniProt Q9BJJ9)
T1 sequence (Q9BJJ9 whole entry): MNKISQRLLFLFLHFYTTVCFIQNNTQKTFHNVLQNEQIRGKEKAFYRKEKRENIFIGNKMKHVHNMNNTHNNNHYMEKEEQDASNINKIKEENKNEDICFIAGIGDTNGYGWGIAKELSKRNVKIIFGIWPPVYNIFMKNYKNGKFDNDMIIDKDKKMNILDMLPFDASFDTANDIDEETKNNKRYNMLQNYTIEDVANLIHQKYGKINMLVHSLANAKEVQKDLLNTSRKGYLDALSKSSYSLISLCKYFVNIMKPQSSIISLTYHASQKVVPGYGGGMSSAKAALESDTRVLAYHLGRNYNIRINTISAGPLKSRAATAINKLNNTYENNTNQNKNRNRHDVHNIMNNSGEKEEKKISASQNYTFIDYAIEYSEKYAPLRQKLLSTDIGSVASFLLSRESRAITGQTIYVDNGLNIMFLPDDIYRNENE
Assay: PfENR Enzymatic Inhibition Assay
Settings: pH 7.9; 25 °C
Experimental: PfENR inhibition assays were carried out on a Cary 100 Bio Spectrophotometer or POLARstar Optima by monitoring oxidation of NADH at 340 nm. The IC50 was determined from a dose-response plot of enzyme fractional activity as a function of inhibitor concentration.

IC50	SMILES
> 100 µM	Oc1cc(-c2nn[nH]n2)ccc1Oc1ccc(Cl)cc1Cl [2-(2,4-dichlorophenoxy)-5-(2H-1,2,3,4-tetrazol-5-yl)phenol]
> 100 µM	O=C(O)c1ccc(Oc2ccc(Cl)cc2Cl)c(O)c1 [4-(2,4-dichlorophenoxy)-3-hydroxybenzoic acid]

SMILES	IC50
Oc1cc(Cl)ccc1Oc1ccc(Cl)cc1Cl	0.073 µM
